The values that follow come from patent US11078228B2, “Ectonucleotidase inhibitors and methods of use thereof” (Calithera Biosciences, Inc., priority 2018, dated 2021).

The target of the test is recombinant CD73 (Homo sapiens (Human), UniProt P21589). Briefly: Assay 2: Inhibition of the CD73 enzyme in vitro (0.05 nM CD73, 1 hour 37° C., Malachite Green). Format: biochemical. As to conditions: 0.05 nM CD73, 50 μM AMP, 1 hour at 37° C. The protocol: For measurements of soluble CD73 enzyme activity, recombinant CD73 was obtained from R&D Systems, Cat. No. 5795-EN-010. […] Reactions were allowed to proceed for 1 hour at 37° C. before the addition of 100 μL Malachite Green (Cell Signaling Technology, Cat. No. 12776). After 5 minutes at room temperature, absorbance at 630 nm was determined on a microplate spectrophotometer. The concentration of inorganic phosphate was determined using a phosphate standard curve.
recombinant CD73, sequence (P21589 27-547): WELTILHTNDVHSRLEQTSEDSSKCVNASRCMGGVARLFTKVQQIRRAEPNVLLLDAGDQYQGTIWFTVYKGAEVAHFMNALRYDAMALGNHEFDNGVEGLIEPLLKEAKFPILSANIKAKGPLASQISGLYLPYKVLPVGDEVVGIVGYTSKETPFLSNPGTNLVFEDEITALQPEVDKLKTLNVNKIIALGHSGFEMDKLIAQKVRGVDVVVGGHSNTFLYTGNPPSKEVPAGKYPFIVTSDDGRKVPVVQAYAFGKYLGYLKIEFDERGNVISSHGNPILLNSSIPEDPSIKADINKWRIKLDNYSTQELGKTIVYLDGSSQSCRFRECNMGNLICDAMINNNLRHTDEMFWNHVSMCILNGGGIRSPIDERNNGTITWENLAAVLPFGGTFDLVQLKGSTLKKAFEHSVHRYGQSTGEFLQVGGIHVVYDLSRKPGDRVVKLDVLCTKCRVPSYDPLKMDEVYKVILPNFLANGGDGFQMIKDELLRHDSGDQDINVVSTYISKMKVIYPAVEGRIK
As to `C#C[C@@]1(O)[C@@H](CO[C@H](Cc2ccc(N3CCCNC3=O)cc2)C(=O)O)O[C@@H](n2cnc3c(N)nc(Cl)nc32)[C@@H]1O` (single isomer, unassigned) [Example 166], the 50% inhibitory concentration (IC50) – broadly, the concentration that gives 50% inhibition – was found to be 145 nM.

As to `C#C[C@@]1(O)[C@@H](COC(Cc2ccc(N3CCCNC3=O)cc2)(C(=O)O)C(=O)O)O[C@@H](n2cnc3c(NC(C)C)nc(Cl)nc32)[C@@H]1O` [Example 140, 2-(((2R,3S,4R,5R)-5-(2-chloro-6-(isopropylamino)-9H-purin-9-yl)-3-ethynyl-3,4-dihydroxytetrahydrofuran-2-yl)methoxy)-2-(4-(2-oxotetrahydropyrimidin-1(2H)-yl)benzyl)malonic acid], the concentration for half-maximal inhibition (IC50) was 0.29 nM.

Consider `C#C[C@@]1(O)[C@@H](COC(Cc2ccccc2)(C(=O)O)C(=O)O)O[C@@H](n2cnc3c(NCc4cccnc4)nc(Cl)nc32)[C@@H]1O` [Example 84, 2-benzyl-2-(((2R,3S,4R,5R)-5-(2-chloro-6-((pyridin-3-ylmethyl)amino)-9H-purin-9-yl)-3-ethynyl-3,4-dihydroxytetrahydrofuran-2-yl)methoxy)malonic acid], for which the IC50 turned out to be 3 nM.

Regarding `C#C[C@@]1(O)[C@@H](COC(C)(C(=O)O)C(=O)O)O[C@@H](n2cnc3c(N)nc(Cl)nc32)[C@@H]1O` [Example 17, 2-(((2R,3S,4R,5R)-5-(6-amino-2-chloro-9H-purin-9-yl)-3-ethynyl-3,4-dihydroxytetrahydrofuran-2-yl)methoxy)-2-methylmalonic acid], the half-inhibitory concentration (IC50) was 347 nM.

For `C#C[C@@]1(O)[C@@H](COC(Cc2ccccc2)(C(=O)O)C(=O)O)O[C@@H](n2cnc3c(N4CCCCCC4)nc(Cl)nc32)[C@@H]1O` [Example 80, 2-(((2R,3S,4R,5R)-5-(6-(azepan-1-yl)-2-chloro-9H-purin-9-yl)-3-ethynyl-3,4-dihydroxytetrahydrofuran-2-yl)methoxy)-2-benzylmalonic acid], the IC50 stood at 2 nM.

For `C#C[C@@]1(O)[C@@H](COC(Cc2ccccc2)(C(=O)O)C(=O)O)O[C@@H](n2cnc3c(N[C@H](C)c4ccccc4)nc(Cl)nc32)[C@@H]1O` [Example 62, 2-benzyl-2-(((2R,3S,4R,5R)-5-(2-chloro-6-(((R)-1-phenylethyl)amino)-9H-purin-9-yl)-3-ethynyl-3,4-dihydroxytetrahydrofuran-2-yl)methoxy)malonic acid], the concentration for half-maximal inhibition (IC50) came out at 2 nM.

As to `C#C[C@@]1(O)[C@@H](COC(Cc2ccccc2)(C(=O)O)C(=O)O)O[C@@H](n2cnc3c(NCC4(O)CC4)nc(Cl)nc32)[C@@H]1O` [Example 44, 2-benzyl-2-(((2R,3S,4R,5R)-5-(2-chloro-6-(((1-hydroxycyclopropyl)-methyl)amino)-9H-purin-9-yl)-3-ethynyl-3,4-dihydroxytetrahydrofuran-2-yl)methoxy)malonic acid], the half-inhibitory concentration (IC50) amounted to 62 nM.

Take `C#C[C@@]1(O)[C@@H](COC(Cc2ccc(NCCN(C)CC(=O)O)cc2)(C(=O)O)C(=O)O)O[C@@H](n2cnc3c(N)nc(Cl)nc32)[C@@H]1O` [Example 155, 2-(((2R,3S,4R,5R)-5-(6-amino-2-chloro-9H-purin-9-yl)-3-ethynyl-3,4-dihydroxytetrahydrofuran-2-yl)methoxy)-2-(4-((2-((carboxymethyl)(methyl)amino)ethyl)amino)benzyl)malonic acid]: the half-maximal inhibitory concentration (IC50) was 2 nM.

In the case of `C#C[C@@]1(O)[C@@H](COC(Cc2ccc(N3CCN(C)CC3=O)cc2)(C(=O)O)C(=O)O)O[C@@H](n2cnc3c(N)nc(Cl)nc32)[C@@H]1O` [Example 154, 2-(((2R,3S,4R,5R)-5-(6-amino-2-chloro-9H-purin-9-yl)-3-ethynyl-3,4-dihydroxytetrahydrofuran-2-yl)methoxy)-2-(4-(4-methyl-2-oxopiperazin-1-yl)benzyl)malonic acid], the IC50 was 2 nM.

In the case of `C#C[C@@]1(O)[C@@H](COC(Cc2ccccc2)(C(=O)O)C(=O)O)O[C@@H](n2cnc3c(NCC(=O)O)nc(Cl)nc32)[C@@H]1O` [Example 76, 2-benzyl-2-(((2R,3S,4R,5R)-5-(6-((carboxymethyl)amino)-2-chloro-9H-purin-9-yl)-3-ethynyl-3,4-dihydroxytetrahydrofuran-2-yl)methoxy)malonic acid], the IC50 was 6 nM.

`C#C[C@@]1(O)[C@@H](COC(Cc2ccc(-c3cccnc3N)cc2)(C(=O)O)C(=O)O)O[C@@H](n2cnc3c(N)nc(Cl)nc32)[C@@H]1O` [Example 197, 2-(((2R,3S,4R, 5R)-5-(6-amino-2-chloro-9H-purin-9-yl)-3-ethynyl-3,4-dihydroxytetrahydrofuran-2-yl)methoxy)-2-(4-(2-aminopyridin-3-yl)benzyl)malonic acid]: the IC50 stood at 0.73 nM.

Take `C#C[C@@]1(O)[C@@H](COC(Cc2ccccc2)(C(=O)O)C(=O)O)O[C@@H](n2cnc3c(NCc4cccc(Cl)c4)nc(Cl)nc32)[C@@H]1O` [Example 86, 2-benzyl-2-(((2R,3S,4R,5R)-5-(2-chloro-6-((3-chlorobenzyl)amino)-9H-purin-9-yl)-3-ethynyl-3,4-dihydroxytetrahydrofuran-2-yl)methoxy)malonic acid]: the IC50 is 1 nM.

`C#C[C@@]1(O)[C@@H](COC(Cc2ccccc2)(C(=O)O)C(=O)O)O[C@@H](n2cnc3c(N(C)CC4CC4)nc(Cl)nc32)[C@@H]1O` [Example 75, 2-benzyl-2-(((2R,3S,4R,5R)-5-(2-chloro-6-((cyclopropylmethyl)-(methyl)amino)-9H-purin-9-yl)-3-ethynyl-3,4-dihydroxytetrahydrofuran-2-yl)methoxy)malonic acid]: the half-maximal inhibitory concentration (IC50) amounted to 0.6 nM.

As to `C#C[C@@]1(O)[C@@H](COC(Cc2ccccc2)(C(=O)O)C(=O)O)O[C@@H](n2cnc3c(N4CCC[C@@H]4CO)nc(Cl)nc32)[C@@H]1O` [Example 103, 2-benzyl-2-(((2R,3S,4R,5R)-5-(2-chloro-6-((R)-2-(hydroxymethyl)-pyrrolidin-1-yl)-9H-purin-9-yl)-3-ethynyl-3,4-dihydroxytetrahydrofuran-2-yl)methoxy)malonic acid], the IC50 stood at 3 nM.

Consider `C#C[C@@]1(O)[C@@H](COC(Cc2ccc(N3CCCNC3=O)cc2)(C(=O)O)C(=O)O)O[C@@H](n2ccc(=O)[nH]c2=O)[C@@H]1O` [Example 134, 2-(((2R,3S,4R,5R)-5-(2,4-dioxo-3,4-dihydropyrimidin-1(2H)-yl)-3-ethynyl-3,4-dihydroxytetrahydrofuran-2-yl)methoxy)-2-(4-(2-oxotetrahydropyrimidin-1 (2H)-yl)benzyl)malonic acid], for which the half-maximal inhibitory concentration (IC50) turned out to be 16 nM.

Take `C#C[C@@]1(O)[C@@H](COC(Cc2ccccc2)(C(=O)O)C(=O)O)O[C@@H](n2cnc3c(N(C)CC)nc(Cl)nc32)[C@@H]1O` [Example 66, 2-benzyl-2-(((2R,3S,4R,5R)-5-(2-chloro-6-(ethyl(methyl)amino)-9H-purin-9-yl)-3-ethynyl-3,4-dihydroxytetrahydrofuran-2-yl)methoxy)malonic acid]: the IC50 is 0.3 nM.

Consider `C#C[C@@]1(O)[C@@H](COC(Cc2ccccc2)(C(=O)O)C(=O)O)O[C@@H](n2cnc3c(NCc4ccc(F)cc4)nc(Cl)nc32)[C@@H]1O` [Example 68, 2-benzyl-2-(((2R,3S,4R,5R)-5-(2-chloro-6-((4-fluorobenzyl)amino)-9H-purin-9-yl)-3-ethynyl-3,4-dihydroxytetrahydrofuran-2-yl)methoxy)malonic acid], for which the concentration for half-maximal inhibition (IC50) came out at 0.8 nM.

As for `C#C[C@@]1(O)[C@@H](COC(Cc2ccc(-c3cccn(C)c3=O)cc2)(C(=O)O)C(=O)O)O[C@@H](n2cnc3c(N)nc(Cl)nc32)[C@@H]1O` [Example 162, 2-(((2R,3S,4R,5R)-5-(6-amino-2-chloro-9H-purin-9-yl)-3-ethynyl-3,4-dihydroxytetrahydrofuran-2-yl)methoxy)-2-(4-(1-methyl-2-oxo-1,2-dihydropyridin-3-yl)benzyl)malonic acid], the half-inhibitory concentration (IC50) worked out at 0.42 nM.

On to `C#C[C@@]1(O)[C@@H](COC(Cc2ccccc2)(C(=O)O)C(=O)O)O[C@@H](n2cnc3c(CCCC(=O)O)nc(Cl)nc32)[C@@H]1O` [Example 163, 2-benzyl-2-(((2R,3S,4R,5R)-5-(6-(3-carboxypropyl)-2-chloro-9H-purin-9-yl)-3-ethynyl-3,4-dihydroxytetrahydrofuran-2-yl)methoxy)malonic acid], for which the IC50 was above 100 nM.

For the compound `C#C[C@@]1(O)[C@@H](COC(Cc2ccccc2)(C(=O)O)C(=O)O)O[C@@H](n2cnc3c(N(CC)CC)nc(Cl)nc32)[C@@H]1O` [Example 96, 2-benzyl-2-(((2R,3S,4R,5R)-5-(2-chloro-6-(diethylamino)-9H-purin-9-yl)-3-ethynyl-3,4-dihydroxytetrahydrofuran-2-yl)methoxy)malonic acid], the concentration for half-maximal inhibition (IC50) is 3 nM.

`C#C[C@@]1(O)[C@@H](COC(Cc2ccc(-c3cccn(CCO)c3=O)cc2)(C(=O)O)C(=O)O)O[C@@H](n2cnc3c(N)nc(Cl)nc32)[C@@H]1O` [Example 21, 2-(((2R,3S,4R,5R)-5-(6-amino-2-chloro-9H-purin-9-yl)-3-ethynyl-3,4-dihydroxytetrahydrofuran-2-yl)methoxy)-2-(4-(1-(2-hydroxyethyl)-2-oxo-1,2-dihydropyridin-3-yl)benzyl)malonic acid]: the IC50 was 0.3 nM.

Consider `C#C[C@@]1(O)[C@@H](COC(Cc2ccccc2)(C(=O)O)C(=O)O)O[C@@H](n2cnc3c(N(C)C(C)C)nc(Cl)nc32)[C@@H]1O` [Example 82, 2-benzyl-2-(((2R,3S,4R,5R)-5-(2-chloro-6-(isopropyl(methyl)amino)-9H-purin-9-yl)-3-ethynyl-3,4-dihydroxytetrahydrofuran-2-yl)methoxy)malonic acid], for which the half-maximal inhibitory concentration (IC50) was 2 nM.

In the case of `C#C[C@@]1(O)[C@@H](COC(Cc2ccc(N3CCCN(CCC)C3=O)cc2)(C(=O)O)C(=O)O)O[C@@H](n2cnc3c(N)nc(Cl)nc32)[C@@H]1O` [Example 152, 2-(((2R,3S,4R,5R)-5-(6-amino-2-chloro-9H-purin-9-yl)-3-ethynyl-3,4-dihydroxytetrahydrofuran-2-yl)methoxy)-2-(4-(2-oxo-3-propyltetrahydropyrimidin-1 (2H)-yl)benzyl)malonic acid], the IC50 worked out at 0.05 nM.
